Assay results published in PubChem BioAssay (NCI).
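Dose response: 5 concentrations. Exposure: 48 h. Format: 96-well plates. Endpoint: linear interpolation; highest concentration if not reached. Here, GI50 denotes the concentration required for 50% inhibition of growth. Definition used: TGI = concentration required for complete inhibition of growth.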

Assays:
Assay in all cases: inhibition of tumour cell growth, NCI panel, 48 h
786-0 renal = tested on: 786-0 renal
EKVX NSCLC = tested on: EKVX NSCLC
K-562 leukemia = tested on: K-562 leukemia
MALME-3M melanoma = tested on: MALME-3M melanoma
NCI-H23 lung = tested on: NCI-H23 lung
SK-MEL-2 melanoma = tested on: SK-MEL-2 melanoma
UO-31 renal = tested on: UO-31 renal
NCI/ADR-RES ovarian = tested on: NCI/ADR-RES ovarian
SK-MEL-5 melanoma = tested on: SK-MEL-5 melanoma
T-47D breast = tested on: T-47D breast

CC1(CO)OC1COCc1ccccc1 (stereo unspecified)
TGI (786-0 renal): > 100 µM | TGI (EKVX NSCLC): > 100 µM | TGI (K-562 leukemia): > 100 µM | TGI (MALME-3M melanoma): > 100 µM | TGI (NCI-H23 lung): > 100 µM | TGI (SK-MEL-2 melanoma): > 100 µM | TGI (UO-31 renal): > 100 µM

N#Cc1ccccc1NC(=O)/C(=N\NC(=O)c1ccncc1)C(c1cnc2ccc([N+](=O)[O-])cc2n1)[N+](=O)[O-] (stereo unspecified)
TGI (786-0 renal): > 100 µM | TGI (EKVX NSCLC): > 100 µM | TGI (MALME-3M melanoma): > 100 µM | TGI (NCI-H23 lung): > 100 µM | TGI (NCI/ADR-RES ovarian): > 100 µM | TGI (SK-MEL-2 melanoma): > 100 µM | TGI (SK-MEL-5 melanoma): > 100 µM | TGI (T-47D breast): > 100 µM | TGI (UO-31 renal): > 100 µM

Nc1nc(Nc2ccc3c(c2)CC[C@@H](N2CCCC2)CC3)nn1-c1cc2c(nn1)-c1ccccc1CCC2
GI50 (786-0 renal): 1.55 µM | TGI (786-0 renal): 3.28 µM | GI50 (EKVX NSCLC): 1.68 µM | TGI (EKVX NSCLC): 3.29 µM | GI50 (NCI-H23 lung): 1.72 µM | TGI (NCI-H23 lung): 3.56 µM | GI50 (SK-MEL-2 melanoma): 1.93 µM | TGI (SK-MEL-2 melanoma): 3.89 µM | GI50 (SK-MEL-5 melanoma): 1.72 µM | TGI (SK-MEL-5 melanoma): 3.11 µM | GI50 (T-47D breast): 2.16 µM | TGI (T-47D breast): 5.1 µM | GI50 (UO-31 renal): 0.936 µM | TGI (UO-31 renal): 2.19 µM

C=CC[C@H]1C[C@@]2(C)OC[C@H](C(C)C)N2C1=O
TGI (786-0 renal): > 100 µM | TGI (EKVX NSCLC): > 100 µM | TGI (K-562 leukemia): > 100 µM | TGI (MALME-3M melanoma): > 100 µM | TGI (NCI-H23 lung): > 100 µM | TGI (SK-MEL-2 melanoma): > 100 µM | TGI (SK-MEL-5 melanoma): > 100 µM

N/N=C(\CC1OC(=O)c2ccccc21)c1ccco1 (stereo unspecified)
TGI (786-0 renal): 0.164 µM | TGI (EKVX NSCLC): > 100 µM | TGI (K-562 leukemia): > 100 µM | TGI (MALME-3M melanoma): > 100 µM | TGI (NCI-H23 lung): > 100 µM | TGI (SK-MEL-2 melanoma): > 100 µM | TGI (SK-MEL-5 melanoma): > 100 µM | TGI (UO-31 renal): > 100 µM

COc1ccc(C2S/C(=C\c3cc(OC)c(OC)c(OC)c3)C(=O)N2NC(=O)Cc2ccccc2)cc1 (stereo unspecified)
TGI (786-0 renal): > 100 µM | TGI (K-562 leukemia): > 100 µM | TGI (MALME-3M melanoma): > 100 µM | TGI (NCI-H23 lung): > 100 µM | TGI (SK-MEL-2 melanoma): > 100 µM | TGI (SK-MEL-5 melanoma): > 100 µM | TGI (UO-31 renal): > 100 µM

COC1/C=C\C=C(/C)C(=O)Nc2cc3nc4ccc(Br)cc4oc-3c(c2=O)CC(C)CC(OC)C(O)C(C)/C=C(\C)C1OC(N)=O (stereo unspecified)
GI50 (786-0 renal): 0.00576 µM | TGI (786-0 renal): 12 µM | TGI (EKVX NSCLC): 25.9 µM | GI50 (K-562 leukemia): 0.000503 µM | TGI (K-562 leukemia): 7.03 µM | GI50 (MALME-3M melanoma): 0.00493 µM | TGI (MALME-3M melanoma): 12.6 µM | TGI (SK-MEL-2 melanoma): 24.5 µM | TGI (SK-MEL-5 melanoma): 9.44 µM | TGI (UO-31 renal): 4.05 µM

CCC1=C[C@@H]2CN(C1)Cc1c([nH]c3ccccc13)[C@@](C(=O)OC)(c1cc3c(cc1OC)N(C=O)[C@H]1[C@@](O)(C(=O)OC)[C@H](OC(C)=O)[C@]4(CC)[C@@H]5C[C@@H]5CN5CC[C@]31[C@@H]54)C2
GI50 (786-0 renal): 0.00587 µM | TGI (786-0 renal): > 3.19 µM | GI50 (K-562 leukemia): < 0.000625 µM | TGI (K-562 leukemia): > 6.25 µM | GI50 (NCI-H23 lung): 0.00318 µM | TGI (NCI-H23 lung): > 6.25 µM | GI50 (NCI/ADR-RES ovarian): 0.632 µM | TGI (NCI/ADR-RES ovarian): > 6.25 µM | GI50 (SK-MEL-2 melanoma): < 0.000625 µM | TGI (SK-MEL-2 melanoma): > 6.25 µM | GI50 (SK-MEL-5 melanoma): 0.000921 µM | TGI (SK-MEL-5 melanoma): 0.0315 µM | GI50 (T-47D breast): < 0.000625 µM | TGI (T-47D breast): > 6.25 µM | GI50 (UO-31 renal): 0.173 µM | TGI (UO-31 renal): > 6.25 µM

CCOc1cc2c(cnc3c4cc(OC)c(OC)cc4ccc23)cc1OC
TGI (786-0 renal): > 100 µM | TGI (EKVX NSCLC): > 100 µM | TGI (K-562 leukemia): > 100 µM | TGI (MALME-3M melanoma): > 100 µM | TGI (NCI-H23 lung): > 100 µM | TGI (SK-MEL-2 melanoma): > 100 µM | TGI (SK-MEL-5 melanoma): > 100 µM | TGI (UO-31 renal): > 100 µM

Nc1ccc(C(=O)c2ccc(N)c(Br)c2)cc1Br
GI50 (786-0 renal): 0.775 µM | TGI (786-0 renal): 17.8 µM | GI50 (EKVX NSCLC): 0.536 µM | TGI (EKVX NSCLC): > 100 µM | GI50 (K-562 leukemia): 0.271 µM | TGI (K-562 leukemia): 22.2 µM | GI50 (NCI-H23 lung): 1.16 µM | TGI (NCI-H23 lung): > 100 µM | GI50 (NCI/ADR-RES ovarian): 0.348 µM | TGI (NCI/ADR-RES ovarian): > 46.2 µM | GI50 (SK-MEL-2 melanoma): 0.435 µM | TGI (SK-MEL-2 melanoma): 3.99 µM | GI50 (SK-MEL-5 melanoma): 0.372 µM | TGI (SK-MEL-5 melanoma): 17.9 µM | GI50 (UO-31 renal): 0.734 µM | TGI (UO-31 renal): 34 µM

CC(=O)OCSc1ncnc2c1ncn2CN1CCOCC1
TGI (786-0 renal): > 100 µM | TGI (EKVX NSCLC): > 100 µM | TGI (K-562 leukemia): > 100 µM | TGI (MALME-3M melanoma): > 100 µM | TGI (NCI-H23 lung): 53.2 µM | TGI (SK-MEL-2 melanoma): > 100 µM | TGI (SK-MEL-5 melanoma): > 100 µM | TGI (UO-31 renal): > 100 µM

CCCCCNC(=O)[C@@H]1CCCN2C(=O)CC[C@H](NC(=O)[C@H](Cc3ccc(OP(=O)(O)O)cc3)NC(C)=O)C(=O)N12
GI50 (786-0 renal): > 25 µM | TGI (786-0 renal): > 25 µM | GI50 (K-562 leukemia): > 25 µM | TGI (K-562 leukemia): > 25 µM | GI50 (MALME-3M melanoma): > 25 µM | TGI (MALME-3M melanoma): > 25 µM | GI50 (NCI-H23 lung): > 25 µM | TGI (NCI-H23 lung): > 25 µM | GI50 (NCI/ADR-RES ovarian): > 25 µM | TGI (NCI/ADR-RES ovarian): > 25 µM | GI50 (SK-MEL-2 melanoma): > 25 µM | TGI (SK-MEL-2 melanoma): > 25 µM | GI50 (SK-MEL-5 melanoma): > 25 µM | TGI (SK-MEL-5 melanoma): > 25 µM | GI50 (T-47D breast): > 25 µM | TGI (T-47D breast): > 25 µM | GI50 (UO-31 renal): > 25 µM | TGI (UO-31 renal): > 25 µM

CCCCCCCCCNCCCCCCCCC
GI50 (786-0 renal): 1.98 µM | TGI (786-0 renal): 3.43 µM | GI50 (EKVX NSCLC): 2.15 µM | TGI (EKVX NSCLC): 5.95 µM | GI50 (MALME-3M melanoma): 1.91 µM | TGI (MALME-3M melanoma): 3.85 µM | GI50 (NCI-H23 lung): 1.72 µM | TGI (NCI-H23 lung): 3.39 µM | GI50 (NCI/ADR-RES ovarian): 1.71 µM | TGI (NCI/ADR-RES ovarian): 3.37 µM | GI50 (SK-MEL-2 melanoma): 1.8 µM | TGI (SK-MEL-2 melanoma): 3.41 µM | GI50 (SK-MEL-5 melanoma): 1.77 µM | TGI (SK-MEL-5 melanoma): 3.2 µM | GI50 (T-47D breast): 1.91 µM | TGI (T-47D breast): 3.59 µM | GI50 (UO-31 renal): 1.62 µM | TGI (UO-31 renal): 3.8 µM

COc1ccc2c(c1)nc(N)c1c3cc(OC)c(OC)cc3cn21
GI50 (786-0 renal): 0.205 µM | TGI (786-0 renal): 11.9 µM | GI50 (EKVX NSCLC): 1.81 µM | TGI (EKVX NSCLC): 22 µM | GI50 (K-562 leukemia): < 0.01 µM | TGI (K-562 leukemia): 11.7 µM | GI50 (MALME-3M melanoma): 9.39 µM | TGI (MALME-3M melanoma): 37.7 µM | TGI (NCI-H23 lung): 5.7 µM | GI50 (SK-MEL-2 melanoma): 2.13 µM | TGI (SK-MEL-2 melanoma): 24.1 µM | GI50 (SK-MEL-5 melanoma): 0.0645 µM | TGI (SK-MEL-5 melanoma): 0.987 µM | GI50 (T-47D breast): 0.721 µM | TGI (T-47D breast): 25.5 µM | GI50 (UO-31 renal): 2.51 µM | TGI (UO-31 renal): 20.5 µM

c1nc2cscc2c2cscc12
TGI (786-0 renal): > 100 µM | TGI (K-562 leukemia): > 100 µM | TGI (MALME-3M melanoma): > 100 µM | TGI (NCI-H23 lung): > 100 µM | TGI (SK-MEL-2 melanoma): > 100 µM | TGI (UO-31 renal): > 100 µM

O=[N+]([O-])c1ccc(Sc2c3ccccc3nc3ccccc23)cc1
TGI (786-0 renal): > 100 µM | TGI (EKVX NSCLC): > 100 µM | TGI (K-562 leukemia): > 100 µM | TGI (MALME-3M melanoma): > 100 µM | TGI (NCI-H23 lung): > 100 µM | TGI (SK-MEL-2 melanoma): > 100 µM | TGI (SK-MEL-5 melanoma): > 100 µM | TGI (UO-31 renal): > 100 µM

C=C1C(=O)O[C@@H]2C1C[C@@H](O)/C(C)=C/C/C=C(\C)CCC[C@H](C)[C@H]2OC(C)=O (stereo partly specified)
GI50 (786-0 renal): 18.7 µM | TGI (786-0 renal): 34.3 µM | GI50 (EKVX NSCLC): 23.8 µM | TGI (EKVX NSCLC): 59.1 µM | GI50 (NCI-H23 lung): 27.1 µM | TGI (NCI-H23 lung): 86.2 µM | GI50 (NCI/ADR-RES ovarian): 32.3 µM | TGI (NCI/ADR-RES ovarian): > 100 µM | GI50 (SK-MEL-2 melanoma): 18.2 µM | TGI (SK-MEL-2 melanoma): 67.9 µM | GI50 (SK-MEL-5 melanoma): 17.7 µM | TGI (SK-MEL-5 melanoma): 35.5 µM | GI50 (T-47D breast): 48.4 µM | TGI (T-47D breast): > 100 µM | GI50 (UO-31 renal): 15.6 µM | TGI (UO-31 renal): 39.4 µM

CC(C)=CC(=O)Oc1ccc([N+](=O)[O-])cc1
TGI (786-0 renal): > 100 µM | TGI (EKVX NSCLC): > 100 µM | TGI (K-562 leukemia): > 100 µM | TGI (MALME-3M melanoma): > 100 µM | TGI (NCI-H23 lung): > 100 µM | TGI (SK-MEL-2 melanoma): > 100 µM | TGI (SK-MEL-5 melanoma): > 100 µM | TGI (UO-31 renal): > 100 µM
